Patent US20090221559A1 (priority 2005, published 2009)
Like-named read-outs stand apart in the source and are kept apart here.

Experiments:
[1] = biological target: T1, HCV NS5B polymerase (His-tagged, C-terminal 21 amino acid deleted NS5B, HC-J4) (Hepatitis C virus genotype 1b, UniProt O92972); experiment: NS5b polymerase assay (biochemical RdRp assay, 3H-GTP incorporation, SPA beads); set-up: species or system HCV genotype 1b
T1 construct: The cDNA encoding NS5B amino acid 1-570 (HC-J4, genotype 1b); His tag (His6, from pET-21b) (C); made in house; host or cells: E. coli BL21 (DE3)
T1 sequence (O92972 2417-3000, looked up, stated change not applied): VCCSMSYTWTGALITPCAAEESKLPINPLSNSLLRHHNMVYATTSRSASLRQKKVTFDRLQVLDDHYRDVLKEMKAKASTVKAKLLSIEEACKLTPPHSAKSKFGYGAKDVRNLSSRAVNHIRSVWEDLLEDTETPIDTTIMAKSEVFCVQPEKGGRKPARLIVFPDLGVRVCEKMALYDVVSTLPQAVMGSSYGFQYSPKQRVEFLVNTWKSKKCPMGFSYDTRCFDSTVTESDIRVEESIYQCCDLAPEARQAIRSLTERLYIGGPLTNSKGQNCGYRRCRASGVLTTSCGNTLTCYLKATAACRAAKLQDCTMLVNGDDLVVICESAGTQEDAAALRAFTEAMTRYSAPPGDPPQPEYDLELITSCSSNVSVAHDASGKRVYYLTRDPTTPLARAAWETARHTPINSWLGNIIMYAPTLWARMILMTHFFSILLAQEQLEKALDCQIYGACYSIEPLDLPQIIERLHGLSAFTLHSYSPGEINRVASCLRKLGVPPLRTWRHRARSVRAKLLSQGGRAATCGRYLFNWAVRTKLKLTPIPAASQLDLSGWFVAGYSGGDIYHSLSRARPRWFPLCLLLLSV
Procedure, shortened: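 His-tagged C-terminal-21-aa-deleted NS5B (genotype 1b, HC-J4) at 200 nM was preincubated 15 min at RT with compound on 5′-biotinylated oligo(rG13)/poly(rC) template/primer before NTPs. Reaction with 600 nM GTP plus 0.1 μCi 3H-GTP and 5 mM MgCl2 in Tris pH 7.5 ran 2 h at 25 °C. Stopped with EDTA/SPA beads for incorporation counting.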

[2] = test system: HCV replicon RNA replication in Huh-7 luc/neo (Huh-Luc) cells; experiment: HCV replicon assay (stable replicon cell reporter assay, luciferase read-out); type: cell-based, HCV type 1b
Procedure, shortened: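 Huh-7 cells stably carry a bicistronic HCV 1b NS3-NS5B subgenomic replicon with firefly luciferase and neo markers. Cells were plated with compound across a concentration range and incubated three days. Replication was measured as luciferase activity to give dose-response curves.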

[3] = NS5B Polymerase Assay IC50, 200 nM enzyme, 3H-GTP incorporation, 2 h at 25° C.
[4] = Hepatitis C virus, Huh-7, 72 h, read-out: Replicon Assay EC50, Huh-Luc cells, three days incubation, luciferase activity
[5] = NS5B Polymerase Assay IC50 (μM)
[6] = Hepatitis C virus, Huh-7, 72 h, read-out: Replicon Assay EC50 (μM), Huh-Luc cells, incubation of three days, luciferase activity

## CC(=O)N1c2ccccc2NC2=C(C(=O)CC(C)(C)C2)C1c1ccc(OCc2ccccc2)c(Cl)c1 (single isomer, unassigned) [compound 304, 10-acetyl-11-[4-benzyloxy-3-chlorophenyl]-3,3-dimethyl-2,3,4,5,10,11-hexahydro-1H-dibenzo[b,e][1,4]diazepin-1-one]
other
  melting point: 130 °C
[1]; [3]
  IC50: 0.46 µM
[2]; [4]
  EC50: 7.59 µM

## CC(=O)N1c2ccc(C(=O)NCCN3CCOCC3)cc2NC2=C(C(=O)CC(C)(C)C2)C1c1ccc(Cl)cc1Cl (stereo not drawn) [compound 321, 10-acetyl-N-(morpholin-4-ylethyl)-11-(2,4-dichlorophenyl)-3,3-dimethyl-1-oxo-2,3,4,5,10,11-hexahydro-1H-dibenzo[b,e][1,4]diazepine-7-carboxamide]
other
  melting point: > 260 °C
[1]; [3]
  IC50: > 133 µM
[2]; [4]
  EC50: 72.2 µM

## CC(=O)N1c2cccc(C)c2NC2=C(C(=O)CC(C)(C)C2)C1c1ccc(Cl)cc1Cl (stereo not drawn) [compound 315]
other
  melting point: > 260 °C
[1]; [3]
  IC50: 4.78 µM
[2]; [4]
  EC50: 14.6 µM

## CC(C)NC(=O)N1c2ccccc2NC2=C(C(=O)CC(C)(C)C2)C1c1ccc(Cl)cc1Cl (stereo not drawn) [compound 156]
other
  melting point: > 260 °C
[1]; [3]
  IC50: 5.15 µM
[2]; [4]
  EC50: 6.69 µM

## CC(=O)N1c2ccccc2NC2=C(C(=O)CC(C)(C)C2)C1c1ccc(Cl)cc1Cl (single isomer, unassigned) [compound 38, 10-Acetyl-11-(2,4-dichlorophenyl)-2,3,4,5,10,11-hexahydro-3,3-dimethyl-1H-dibenzo[b,e][1,4]diazepin-1-one]
other
  melting point: > 250 °C
[1]; [3]
  IC50: 2.84 µM
[2]; read-out: Replicon Assay EC50, Huh-Luc cells, three days incubation, luciferase activity
  EC50: 23.8 µM

## CC1(C)CC(=O)C2=C(C1)Nc1ccccc1N(C(=O)CCc1ccccc1)C2c1ccc(Cl)cc1Cl (stereo not drawn) [compound 152]
other
  melting point: 242 °C
[1]; [3]
  IC50: 24.1 µM
[2]; [4]
  EC50: 2.5 µM

## CN(C)c1ccc(NC(=O)N2c3ccccc3NC3=C(C(=O)CC(C)(C)C3)C2c2ccc(Cl)cc2Cl)cc1 (stereo not drawn) [compound 157]
other
  melting point: 238 °C
[1]; [3]
  IC50: 29.5 µM
[2]; [4]
  EC50: 1.95 µM

## CC1(C)CC(=O)C2=C(C1)Nc1ccccc1N(C(=O)c1ccccc1)C2c1ccc(Cl)cc1Cl (stereo not drawn) [compound 45]
other
  melting point: > 250 °C
[1]; [3]
  IC50: 4.83 µM
[2]; [4]
  EC50: 6.79 µM

## CC1(C)CC(=O)C2=C(C1)Nc1ccccc1N(C(=O)CC#N)C2c1ccc(Cl)cc1Cl (stereo not drawn) [compound 151]
other
  melting point: > 260 °C
[1]; [3]
  IC50: 1.25 µM
[2]; [4]
  EC50: 18.4 µM

## Cc1cccc2c1NC(c1ccc(Cl)cc1Cl)C1=C(CC(C)(C)CC1=O)N2 (stereo not drawn) [compound 469]
other
  melting point: 235 °C
[1]; [5]
  IC50: 32.3 µM
[2]; [6]
  EC50: 8.24 µM

## CC(=O)N1c2ccccc2NC2=C(C(=O)CC(C)(C)C2)C1c1ccc(C(F)(F)F)cc1 (stereo not drawn) [compound 120]
other
  melting point: > 250 °C
[1]; [3]
  IC50: > 133 µM
[2]; [4]
  EC50: 31.8 µM

## CC(=O)N1c2ccccc2N(Cc2ccccc2)C2=C(C(=O)CC(C)(C)C2)C1c1ccc(Cl)cc1Cl (stereo not drawn) [compound 323]
other
  melting point: 235 °C
[1]; [3]
  IC50: 53.8 µM
[2]; [4]
  EC50: 1.65 µM

## Cc1cccc2c1NC1=C(C(=O)CC(C)(C)C1)C(c1ccc(Cl)cc1Cl)N2 (stereo not drawn) [compound 471]
other
  melting point: 225 °C
[1]; [5]
  IC50: > 133 µM
[2]; [6]
  EC50: 14.7 µM

## CC1(C)CC(=O)C2=C(C1)Nc1c(N)cccc1NC2c1ccc(Cl)cc1Cl (stereo not drawn) [compound 474]
other
  melting point: 248 °C
[1]; [5]
  IC50: 1.72 µM
[2]; [6]
  EC50: 34.1 µM

## CC1(C)CC(=O)C2=C(C1)Nc1ccccc1N(C(=O)C(F)(F)F)C2c1ccc(Cl)cc1Cl (stereo not drawn) [compound 107]
other
  melting point: > 260 °C
[1]; [3]
  IC50: > 133 µM
[2]; [4]
  EC50: 11.5 µM

## CC1(C)CC(=O)C2=C(C1)Nc1ccccc1N(C(=O)c1ccco1)C2c1ccc(Cl)cc1Cl (stereo not drawn) [compound 153]
other
  melting point: > 260 °C
[1]; [3]
  IC50: 4.05 µM
[2]; [4]
  EC50: 18.6 µM

## CC1(C)CC(=O)C2=C(C1)Nc1ccccc1N(C(=O)Cc1ccccc1)C2c1ccc(Cl)cc1Cl (stereo not drawn) [compound 154]
other
  melting point: > 260 °C
[1]; [3]
  IC50: 123 µM
[2]; [4]
  EC50: 5.46 µM

## CC(=O)N1c2ccccc2NC2=C(C(=O)CC(C)(C)C2)C1c1ccc(OCc2ccccc2)c(Cl)c1 (stereo not drawn) [compound 139, 10-acetyl-11-[4-benzyloxy-3-chlorophenyl]-3,3-dimethyl-2,3,4,5,10,11-hexahydro-1H-dibenzo[b,e][1,4]diazepin-1-one]
other
  melting point: 197 °C
[1]; [3]
  IC50: 1.01 µM
[2]; [4]
  EC50: 2.9 µM

## CC(=O)N1c2c(Br)cccc2NC2=C(C(=O)CC(C)(C)C2)C1c1ccc(Cl)cc1Cl (stereo not drawn) [compound 311]
other
  melting point: > 260 °C
[1]; [3]
  IC50: 13.3 µM
[2]; [4]
  EC50: 4.03 µM

## CC1(C)CC(=O)C2=C(C1)Nc1cccc(C#N)c1NC2c1ccc(Cl)cc1Cl (stereo not drawn) [compound 470]
other
  melting point: 225 °C
[1]; [5]
  IC50: 23.3 µM
[2]; [6]
  EC50: 16.5 µM

## CC(=O)N1c2c(C#N)cccc2NC2=C(C(=O)CC(C)(C)C2)C1c1ccc(Cl)cc1Cl (stereo not drawn) [compound 313]
other
  melting point: 248 °C
[1]; [3]
  IC50: 6.04 µM
[2]; [4]
  EC50: 27.5 µM
